Measured values from patent EP2818471A1, “Nitrogen bicyclic compounds as inhibitors for Scyl1 and Grk5” (Max-Planck-Gesellschaft zur Förderung der Wissenschaften …, priority 2013, dated 2014).

The compounds below were run on beta-TC6 cells (assay: Insulin HTRF assay, relative activity Ar normalized to sunitinib). Settings: Mus musculus, normalized to positive control sunitinib (5 µM = 100%), Table 10.
Assay type: cell-based
Source text: For further screening of compounds derived from compounds described above for their ability to regulate insulin release an insulin HTRF® (Homogeneous Time-Resolved Fluorescence; Cisbio International, France) was used. This assay is based on two antibodies against insulin binding to different epitopes of insulin. One of these antibodies is coupled to Europium (Ab-Eu-Cryptate) and the other one to the fluorophore XL665 (Ab-XL665). Is insulin secreted into the supernatant of cell culture both antibodies can bind to insulin and come therefore into close proximity which allows upon excitation that energy transfer between (FRET) the long-life fluorescent donor Europium (cryptate) and the acceptors XL665. FRET increases proportionally with insulin concentration.
The automated assay protocol is as follows: • On day 1 15k beta-TC6 cells per well were seeded for 24 or 48 h in 50 µl complete medium. On day 2 or respective on day 3 the medium is removed and cells are washed with 60 µl 1xPBS and 20 µl induction buffer is added using BioTek washer. Subsequently, 10 µl Sunitininb (5 µM f.c.) or the test compound in induction buffer; 0.5% f.c. DMSO (CyBi-well) is transferred to the cells. The cells are then incubated at 37°C for 2, 3, 4h.
The HTRF assay is carried out using Greiner 384-well 784075 assay plates. First 10 µl supernatant is transferred from the cell plates in HTRF plates (CyBi-well). 10 µl of 0, 1, 2, and 4 ng/ml Insulin standard controls in assay medium is used as a control. To each well 10 µl of combined 1:25 Ab-XL665 (Acc) and 1:20 Ab-Eu-Cryptate (WellMate) are added and incubated for 120 min at RT in the dark. Finally HTRF is measured on ViewLux ultra high throughput microplate imager (PerkinElmer).
The evaluation software DataFactoty derives relative activities Ar according to the following equation: Ar = (V-R(0%control))/(R(100%control) -R(0%control)) × 100 [formula] […]
The activity of the compounds was classified according to their Ar (relative activity) into the following ranges: Ar ≥ 100% + + + +; 50% ≤ Ar < 100% + + +; 20% ≤ Ar < 50% + +; 10% < Ar < 20% + [formula] Table 10. Ar (relative activity) values of inventive compounds

Row | SMILES | Emax
1 | CC(C)[C@@H](CO)Nc1ccc2ncc(-c3ccc(N)cc3)n2n1 [compound 5, (2S)-2-[[3-(4-aminophenyl)imidazo[1,2-b]pyridazin-6-yl]amino]-3-methyl-butan-1-ol] | 50 to 100%
2 | COc1ccc(-c2cnc3ccc(NCc4cccs4)nn23)c(OC)c1 [compound 6, 3-(2,4-dimethoxyphenyl)-N-(2-thienylmethyl)imidazo[1,2-b]pyridazin-6-amine] | 20 to 50%
3 | COCCNc1ccc2ncc(-c3ccc(C(=O)Nc4ccc(OC)cc4)cc3)n2n1 [compound 7, 4-[6-(2-methoxyethylamino)imidazo[1,2-b]pyridazin-3-yl]-N-(4-methoxyphenyl)benzamide] | 20 to 50%
4 | CCC(CO)Nc1ccc2ncc(-c3ccccc3Cl)n2n1 (centres unmarked) [compound 9, 2-[[3-(2-chlorophenyl)imidazo[1,2-b]pyridazin-6-yl]amino]butan-1-ol] | 10 to 20%
5 | COc1cc(-c2cnc3ccc(NCc4cccc(Cl)c4)nn23)ccc1O [compound 16, 4-[6-[(3-chlorophenyl)methylamino]imidazo[1,2-b]pyridazin-3-yl]-2-methoxy-phenol] | 20 to 50%
6 | CC(=O)Nc1cccc(-c2cnc3ccc(NCc4ccc(F)cc4)nn23)c1 [compound 19, N-[3-[6-[(4-fluorophenyl)methylamino]imidazo[1,2-b]pyridazin-3-yl]phenyl]acetamide] | 10 to 20%
7 | CCCNc1ccc2ncc(-c3ccc(C(=O)O)cc3)n2n1 [compound 20, 4-[6-(propylamino)imidazo[1,2-b]pyridazin-3-yl]benzoic acid] | 10 to 20%
8 | CCCNc1ccc2ncc(-c3cccc(/C=C/C(=O)O)c3)n2n1 [compound 21, (E)-3-[3-[6-(propylamino)imidazo[1,2-b]pyridazin-3-yl]phenyl]prop-2-enoic acid] | 10 to 20%
9 | c1cncc(CCNc2ccc3ncc(-c4ccc(N5CCOCC5)cc4)n3n2)c1 [compound 24, 3-(4-morpholinophenyl)-N-[2-(3-pyridyl)ethyl]imidazo[1,2-b]pyridazin-6-amine] | 50 to 100%
10 | c1cncc(CCNc2ccc3ncc(-c4ccc5ccccc5c4)n3n2)c1 [compound 25, 3-(2-naphthyl)-N-[2-(3-pyridyl)ethyl]imidazo[1,2-b]pyridazin-6-amine] | 10 to 20%
11 | c1cc2c(cc1CNc1ccc3ncc(-c4ccc(N5CCOCC5)cc4)n3n1)OCO2 [compound 26, N-(1,3-benzodioxol-5-ylmethyl)-3-(4-morpholinophenyl)imidazo[1,2-b]pyridazin-6-amine] | 20 to 50%
12 | OC1CCC(Nc2ccc3ncc(Br)n3n2)CC1 (centres unmarked) [compound 32, 4-[(3-bromoimidazo[1,2-b]pyridazin-6-yl)amino]cyclohexanol] | 10 to 20%
13 | Nc1cccc(-c2cnc3ccc(NC4CCOCC4)nn23)c1 [compound 33, 3-(3-aminophenyl)-N-tetrahydropyran-4-yl-imidazo[1,2-b]pyridazin-6-amine] | 20 to 50%
14 | COc1ccc(CNc2ccc3ncc(-c4ccc(O)cc4)n3n2)cc1 [compound 36, 4-[6-[(4-methoxyphenyl)methylamino]imidazo[1,2-b]pyridazin-3-yl]phenol] | 20 to 50%
15 | COc1ccc(CNc2ccc3ncc(-c4ccc5[nH]ccc5c4)n3n2)cc1 [compound 37, 3-(1H-indol-5-yl)-N-[(4-methoxyphenyl)methyl]imidazo[1,2-b]pyridazin-6-amine] | 20 to 50%
16 | COc1ccc(CNc2ccc3ncc(-c4ccc(OC)cc4OC)n3n2)cc1 [compound 39, 3-(2,4-dimethoxyphenyl)-N-[(4-methoxyphenyl)methyl]imidazo[1,2-b]pyridazin-6-amine] | 10 to 20%
17 | COc1ccc(-c2cnc3ccc(NCCCO)nn23)cc1 [compound 41, 3-[[3-(4-methoxyphenyl)imidazo[1,2-b]pyridazin-6-yl]amino]propan-1-ol] | 10 to 20%
18 | COc1ccc(-c2cnc3ccc(NCCCO)nn23)c(OC)c1 [compound 42, 3-[[3-(2,4-dimethoxyphenyl)imidazo[1,2-b]pyridazin-6-yl]amino]propan-1-ol] | 10 to 20%

Row | SMILES | Emax
19 | Brc1cnc2ccc(NCCCN3CCOCC3)nn12 [compound 44, 3-bromo-N-(3-morpholinopropyl)imidazo[1,2-b]pyridazin-6-amine] | 10 to 20%
20 | COc1ccc(-c2cnc3ccc(N[C@H](CO)C(C)C)nn23)c(OC)c1 [compound 46, (2S)-2-[[3-(2,4-dimethoxyphenyl)imidazo[1,2-b]pyridazin-6-yl]amino]-3-methyl-butan-1-ol] | 20 to 50%
21 | COc1ccc(-c2cnc3ccc(NCc4ccccn4)nn23)cc1OC [compound 47, 3-(3,4-dimethoxyphenyl)-N-(2-pyridylmethyl)imidazo[1,2-b]pyridazin-6-amine] | 20 to 50%
22 | COc1cc(CNc2ccc3ncc(-c4ccc(N(C)C)cc4)n3n2)cc(OC)c1OC [compound 49, 3-(4-dimethylaminophenyl)-N-[(3,4,5-trimethoxyphenyl)methyl]imidazo[1,2-b]pyridazin-6-amine] | 10 to 20%
23 | COc1ccc(-c2cnc3ccc(NCC4CC4)nn23)cn1 [compound 51, N-(cyclopropylmethyl)-3-(6-methoxy-3-pyridyl)imidazo[1,2-b]pyridazin-6-amine] | 10 to 20%
24 | Cc1ccc(CNc2ccc3ncc(-c4ccc(O)cc4)n3n2)c(C)c1 [compound 52, 4-[6-[(2,4-dimethylphenyl)methylamino]imidazo[1,2-b]pyridazin-3-yl]phenol] | 20 to 50%
25 | Cc1ccc(CNc2ccc3ncc(-c4ccc(C(=O)NCCN(C)C)cc4)n3n2)c(C)c1 [compound 54, N-(2-dimethylaminoethyl)-4-[6-[(2,4-dimethylphenyl)methylamino]imidazo[1,2-b]pyridazin-3-yl]benzamide] | 20 to 50%
26 | CNc1ccc2ncc(/C=C\CCCO)n2n1 [compound 59, (Z)-5-[6-(methylamino)imidazo[1,2-b]pyridazin-3-yl]pent-4-en-1-ol] | 10 to 20%
27 | CNc1ccc2ncc(-c3ccccc3O)n2n1 [compound 60, 2-[6-(methylamino)imidazo[1,2-b]pyridazin-3-yl]phenol] | 20 to 50%
28 | CNc1ccc2ncc(-c3cccc(C(=O)N(C)C)c3)n2n1 [compound 61, N,N-dimethyl-3-[6-(methylamino)imidazo[1,2-b]pyridazin-3-yl]benzamide] | 20 to 50%
29 | CN1CCN(c2ccc(-c3cnc4cccnn34)cn2)CC1 [compound 69, 3-[6-(4-methylpiperazin-1-yl)-3-pyridyl]imidazo[1,2-b]pyridazine] | 10 to 20%
30 | CSc1ccc(-c2cnc3cccnn23)cc1 [compound 72, 3-(4-methylsulfanylphenyl)imidazo[1,2-b]pyridazine] | 10 to 20%
31 | C(=C\c1cnc2cccnn12)/c1ccccc1 [compound 74, 3-[(E)-styryl]imidazo[1,2-b]pyridazine] | 20 to 50%
32 | CCOc1cccc(-c2cnc3cccnn23)c1 [compound 76, 3-(3-ethoxyphenyl)imidazo[1,2-b]pyridazine] | 10 to 20%
33 | Cc1cc(-c2cnc3cccnn23)cc(C)c1O [compound 77, 4-imidazo[1,2-b]pyridazin-3-yl-2,6-dimethyl-phenol] | 10 to 20%
34 | O=C(NCCO)c1ccc(-c2cnc3cccnn23)cc1 [compound 78, N-(2-hydroxyethyl)-4-imidazo[1,2-b]pyridazin-3-yl-benzamide] | 10 to 20%
35 | c1cnn2c(-c3ccc4c(c3)CCO4)cnc2c1 [compound 80, 3-(2,3-dihydrobenzofuran-5-yl)imidazo[1,2-b]pyridazine] | 10 to 20%
